{
  "source": "patent US20250223303A1",
  "about": "“TRICYCLIC BORONIC ACID DERIVATIVE, AND PREPARATION METHOD THEREFOR AND APPLICATION THEREOF” (priority 2021, published 2025)",
  "key": {"[1]": {"test_system": "Escherichia coli ARLG 2829", "experiment": "MIC test of compounds in combination with antibiotics, Escherichia coli ARLG 2829", "conditions": "for MIC of biapenem in combination with compound, Escherichia coli ARLG-2829 NDM-5, OXA-1: Biapenem + compound (8 μg/mL); for MIC of meropenem in combination with compound, Escherichia coli ARLG-2829 NDM-5, OXA-1: Meropenem + compound (8 μg/mL)"}, "[2]": {"test_system": "Klebsiella pneumoniae ARLG 1196", "experiment": "MIC test of compounds in combination with antibiotics, Klebsiella pneumoniae ARLG 1196", "conditions": "for MIC of biapenem in combination with compound, Klebsiella pneumoniae ARLG-1196 CTM-1 group, SHV, NDM, TEM: Biapenem + compound (8 μg/mL); for MIC of meropenem in combination with compound, Klebsiella pneumoniae ARLG-1196 CTM-1 group, SHV, NDM, TEM: Meropenem + compound (8 μg/mL)", "experimental": "(§1) Strain preparation: the strains to be tested were streaked from glycerol tube at −80° C. onto Mueller Hinton II Agar plates. The plates were then placed in a 37° C. incubator and cultured for 18-24 hours.\n(§2) Media preparation: CAMHB (Mueller Hinton II Broth): 22 g of powder was dissolved in 1 L of purified water and sterilized at 121° C. for 10 min for use. Saline: 8.5 g NaCl was dissolved in 1 L of pure water and sterilized at 121° C. for 30 min for use.\n(§3) Preparation of compound and antibiotic stock solutions: the compound and antibiotic were dissolved in DMSO or water to 12.8 mg/mL.\n(§4) 2-Fold gradient dilution of antibiotics: 300 μL of CAMHVIB medium was added to columns 2-12 of a 96-deep well plate. In column 1, 24 μL of antibiotic stock solution and 576 µL of CAMHB medium were added and mixed well, with a concentration of 512 μg/mL. 300 µL of antibiotic solution was transferred from the column 1 to the second column and mixed well. The process was repeated until column 11, and the column 12 was a blank control.\n(§5) Dilution of combined compounds: the compound was diluted 400-fold to 32 μg/ml with CAMHB medium.\n(§6) Working solution aliquoting: 25 μL of antibiotics was aliquoted into the 96-U bottom plate with a pipette, and 25 μL of combined compound was added to each well. If antibiotics were used alone, 25 μL of CAMHB medium was added.\n(§7) Inoculum solution preparation: 5-6 single colonies were selected from the plate and suspended in normal saline. The bacterial suspension was adjusted to 0.2 (i.e., 0.5 McFarland turbidity, with a bacterial concentration was about 1 to 2×10^8 CFU/mL) with a turbidity meter. The bacterial suspension was diluted 100-fold with CAMHB medium for later use.\n(§8) Inoculation: 50 μL of inoculum solution was transferred to the above 50 μL compound plate with a pipette.\n(§9) Culture: The 96-U bottom plate was placed in an incubator at 37° C. for 18 to 20 h.\n(§10) After the incubation, bacterial growth was visually observed, and the test plate was photographed and recorded."}, "[3]": {"test_system": "Klebsiella pneumoniae ATCC BAA-2470", "experiment": "MIC test of compounds in combination with antibiotics, Klebsiella pneumoniae ATCC BAA-2470", "conditions": "for MIC of biapenem in combination with compound, Klebsiella pneumoniae ATCC BAA-2470 NDM-1: Biapenem + compound (8 μg/mL); for MIC of meropenem in combination with compound, Klebsiella pneumoniae ATCC BAA-2470 NDM-1: Meropenem + compound (8 μg/mL)"}, "[4]": {"test_system": "Klebsiella pneumoniae ATCC BAA-1705", "experiment": "MIC test of compounds in combination with antibiotics, Klebsiella pneumoniae ATCC BAA-1705", "conditions": "for MIC of biapenem in combination with compound, Klebsiella pneumoniae ATCC BAA-1705 KPC-2: Biapenem + compound (8 μg/mL); for MIC of meropenem in combination with compound, Klebsiella pneumoniae ATCC BAA-1705 KPC-2: Meropenem + compound (8 μg/mL)", "experimental": "as §1, §2, §3, §4, §5, §6, §7, §8, §9, §10"}, "[5]": {"test_system": "Acinetobacter baumannii WX-AB005", "experiment": "MIC test of compounds in combination with antibiotics, Acinetobacter baumannii WX-AB005", "conditions": "for MIC of biapenem in combination with compound, Acinetobacter baumannii WX-AB005: Biapenem + compound (8 μg/mL); for MIC of meropenem in combination with compound, Acinetobacter baumannii WX-AB005: Meropenem + compound (8 μg/mL)", "experimental": "as §4, §5, §6, §7, §8, §9"}, "[6]": {"test_system": "Acinetobacter baumannii WX-AB013", "experiment": "MIC test of compounds in combination with antibiotics, Acinetobacter baumannii WX-AB013", "conditions": "for MIC of biapenem in combination with compound, Acinetobacter baumannii WX-AB013: Biapenem + compound (8 μg/mL); for MIC of meropenem in combination with compound, Acinetobacter baumannii WX-AB013: Meropenem + compound (8 μg/mL)"}, "[7]": {"test_system": "Acinetobacter baumannii ARLG-1791 OXA-23", "experiment": "MIC test of compounds in combination with antibiotics, Acinetobacter baumannii ARLG-1791", "conditions": "for MIC of biapenem in combination with compound, Acinetobacter baumannii ARLG-1791 OXA-23: Biapenem + compound (8 μg/mL); for MIC of meropenem in combination with compound, Acinetobacter baumannii ARLG-1791 OXA-23: Meropenem + compound (8 μg/mL)", "experimental": "as §4, §5, §6, §7, §8, §9"}, "[8]": {"test_system": "Acinetobacter baumannii ARLG-1809 OXA-23", "experiment": "MIC test of compounds in combination with antibiotics, Acinetobacter baumannii ARLG-1809", "conditions": "for MIC of biapenem in combination with compound, Acinetobacter baumannii ARLG-1809 OXA-23: Biapenem + compound (8 μg/mL); for MIC of meropenem in combination with compound, Acinetobacter baumannii ARLG-1809 OXA-23: Meropenem + compound (8 μg/mL)", "experimental": "as §4, §5, §6, §7, §8, §9"}, "[9]": {"test_system": "Acinetobacter baumannii ARLG-1852 OXA-23", "experiment": "MIC test of compounds in combination with antibiotics, Acinetobacter baumannii ARLG-1852", "conditions": "for MIC of biapenem in combination with compound, Acinetobacter baumannii ARLG-1852 OXA-23: Biapenem + compound (8 μg/mL); for MIC of meropenem in combination with compound, Acinetobacter baumannii ARLG-1852 OXA-23: Meropenem + compound (8 μg/mL)", "experimental": "as §4, §5, §6, §7, §8, §9"}, "[10]": {"test_system": "Acinetobacter baumannii ARLG-1853 OXA-23", "experiment": "MIC test of compounds in combination with antibiotics, Acinetobacter baumannii ARLG-1853", "conditions": "for MIC of biapenem in combination with compound, Acinetobacter baumannii ARLG-1853 OXA-23: Biapenem + compound (8 μg/mL); for MIC of meropenem in combination with compound, Acinetobacter baumannii ARLG-1853 OXA-23: Meropenem + compound (8 μg/mL)", "experimental": "as §4, §5, §6, §7, §8, §9"}},
  "data": [
    {"smiles": "CC(Sc1ccc2c(c1C(=O)O)OB(O)C1CC21)C1CC1", "note": "(single isomer, unassigned) [Compound 16-a]", "values": [
      {"measurement": "MIC of biapenem in combination with compound, Escherichia coli ARLG-2829 NDM-5, OXA-1", "setting": "[1]", "value": 0.25, "unit": "µg/mL"},
      {"measurement": "MIC of meropenem in combination with compound, Escherichia coli ARLG-2829 NDM-5, OXA-1", "setting": "[1]", "value": 2, "unit": "µg/mL"},
      {"measurement": "MIC of biapenem in combination with compound, Klebsiella pneumoniae ARLG-1196 CTM-1 group, SHV, NDM, TEM", "setting": "[2]", "value": 0.5, "unit": "µg/mL"},
      {"measurement": "MIC of meropenem in combination with compound, Klebsiella pneumoniae ARLG-1196 CTM-1 group, SHV, NDM, TEM", "setting": "[2]", "value": 1, "unit": "µg/mL"},
      {"measurement": "MIC of biapenem in combination with compound, Klebsiella pneumoniae ATCC BAA-2470 NDM-1", "setting": "[3]", "value": 1, "unit": "µg/mL"},
      {"measurement": "MIC of meropenem in combination with compound, Klebsiella pneumoniae ATCC BAA-2470 NDM-1", "setting": "[3]", "value": 2, "unit": "µg/mL"},
      {"measurement": "MIC of biapenem in combination with compound, Klebsiella pneumoniae ATCC BAA-1705 KPC-2", "setting": "[4]", "value": 0.5, "unit": "µg/mL"},
      {"measurement": "MIC of meropenem in combination with compound, Klebsiella pneumoniae ATCC BAA-1705 KPC-2", "setting": "[4]", "value": 4, "unit": "µg/mL"},
      {"measurement": "MIC of biapenem in combination with compound, Acinetobacter baumannii WX-AB005", "setting": "[5]", "value": 2, "unit": "µg/mL"},
      {"measurement": "MIC of meropenem in combination with compound, Acinetobacter baumannii WX-AB005", "setting": "[5]", "value": 8, "unit": "µg/mL"},
      {"measurement": "MIC of biapenem in combination with compound, Acinetobacter baumannii WX-AB013", "setting": "[6]", "value": 0.5, "unit": "µg/mL"},
      {"measurement": "MIC of meropenem in combination with compound, Acinetobacter baumannii WX-AB013", "setting": "[6]", "value": 4, "unit": "µg/mL"},
      {"measurement": "MIC of biapenem in combination with compound, Acinetobacter baumannii ARLG-1791 OXA-23", "setting": "[7]", "value": 0.5, "unit": "µg/mL"},
      {"measurement": "MIC of meropenem in combination with compound, Acinetobacter baumannii ARLG-1791 OXA-23", "setting": "[7]", "value": 4, "unit": "µg/mL"},
      {"measurement": "MIC of biapenem in combination with compound, Acinetobacter baumannii ARLG-1809 OXA-23", "setting": "[8]", "value": 1, "unit": "µg/mL"},
      {"measurement": "MIC of meropenem in combination with compound, Acinetobacter baumannii ARLG-1809 OXA-23", "setting": "[8]", "value": 2, "unit": "µg/mL"},
      {"measurement": "MIC of biapenem in combination with compound, Acinetobacter baumannii ARLG-1852 OXA-23", "setting": "[9]", "value": 0.25, "unit": "µg/mL"},
      {"measurement": "MIC of meropenem in combination with compound, Acinetobacter baumannii ARLG-1852 OXA-23", "setting": "[9]", "value": 2, "unit": "µg/mL"},
      {"measurement": "MIC of biapenem in combination with compound, Acinetobacter baumannii ARLG-1853 OXA-23", "setting": "[10]", "value": 0.5, "unit": "µg/mL"},
      {"measurement": "MIC of meropenem in combination with compound, Acinetobacter baumannii ARLG-1853 OXA-23", "setting": "[10]", "value": 2, "unit": "µg/mL"}
    ]},
    {"smiles": "NC1COCC1Sc1ccc2c(c1C(=O)O)OB(O)C1CC21", "note": "(single isomer, unassigned) [Compound 10_P2]", "values": [
      {"measurement": "MIC of biapenem in combination with compound, Escherichia coli ARLG-2829 NDM-5, OXA-1", "setting": "[1]", "value": "≤0.125", "unit": "µg/mL"},
      {"measurement": "MIC of meropenem in combination with compound, Escherichia coli ARLG-2829 NDM-5, OXA-1", "setting": "[1]", "value": 0.25, "unit": "µg/mL"},
      {"measurement": "MIC of biapenem in combination with compound, Klebsiella pneumoniae ARLG-1196 CTM-1 group, SHV, NDM, TEM", "setting": "[2]", "value": 0.25, "unit": "µg/mL"},
      {"measurement": "MIC of meropenem in combination with compound, Klebsiella pneumoniae ARLG-1196 CTM-1 group, SHV, NDM, TEM", "setting": "[2]", "value": 1, "unit": "µg/mL"},
      {"measurement": "MIC of biapenem in combination with compound, Klebsiella pneumoniae ATCC BAA-2470 NDM-1", "setting": "[3]", "value": 0.5, "unit": "µg/mL"},
      {"measurement": "MIC of meropenem in combination with compound, Klebsiella pneumoniae ATCC BAA-2470 NDM-1", "setting": "[3]", "value": 0.25, "unit": "µg/mL"},
      {"measurement": "MIC of biapenem in combination with compound, Klebsiella pneumoniae ATCC BAA-1705 KPC-2", "setting": "[4]", "value": "≤0.125", "unit": "µg/mL"},
      {"measurement": "MIC of meropenem in combination with compound, Klebsiella pneumoniae ATCC BAA-1705 KPC-2", "setting": "[4]", "value": "≤0.125", "unit": "µg/mL"},
      {"measurement": "MIC of biapenem in combination with compound, Acinetobacter baumannii WX-AB005", "setting": "[5]", "value": 1, "unit": "µg/mL"},
      {"measurement": "MIC of meropenem in combination with compound, Acinetobacter baumannii WX-AB005", "setting": "[5]", "value": 4, "unit": "µg/mL"},
      {"measurement": "MIC of biapenem in combination with compound, Acinetobacter baumannii WX-AB013", "setting": "[6]", "value": 0.5, "unit": "µg/mL"},
      {"measurement": "MIC of meropenem in combination with compound, Acinetobacter baumannii WX-AB013", "setting": "[6]", "value": 1, "unit": "µg/mL"},
      {"measurement": "MIC of biapenem in combination with compound, Acinetobacter baumannii ARLG-1791 OXA-23", "setting": "[7]", "value": 0.25, "unit": "µg/mL"},
      {"measurement": "MIC of meropenem in combination with compound, Acinetobacter baumannii ARLG-1791 OXA-23", "setting": "[7]", "value": 4, "unit": "µg/mL"},
      {"measurement": "MIC of biapenem in combination with compound, Acinetobacter baumannii ARLG-1809 OXA-23", "setting": "[8]", "value": 0.25, "unit": "µg/mL"},
      {"measurement": "MIC of meropenem in combination with compound, Acinetobacter baumannii ARLG-1809 OXA-23", "setting": "[8]", "value": 2, "unit": "µg/mL"},
      {"measurement": "MIC of biapenem in combination with compound, Acinetobacter baumannii ARLG-1852 OXA-23", "setting": "[9]", "value": "≤0.125", "unit": "µg/mL"},
      {"measurement": "MIC of meropenem in combination with compound, Acinetobacter baumannii ARLG-1852 OXA-23", "setting": "[9]", "value": 1, "unit": "µg/mL"},
      {"measurement": "MIC of biapenem in combination with compound, Acinetobacter baumannii ARLG-1853 OXA-23", "setting": "[10]", "value": "≤0.125", "unit": "µg/mL"},
      {"measurement": "MIC of meropenem in combination with compound, Acinetobacter baumannii ARLG-1853 OXA-23", "setting": "[10]", "value": 1, "unit": "µg/mL"}
    ]}
  ]
}
